System: liver
Conditions: feeding for 10 days (FIG. 8)
From the text: Two-photon microscopy was used to observe living organism. […] The multiphoton microscope is illustrated in FIG. 5. […] The SHG signal was collected in the backscattering geometry.
When the liver was damaged, the function of hepatocytes would also be damaged. In the present invention, CCl4 was applied to simulate the reaction of hepatocyte when the liver was toxic.

## ClC(Cl)(Cl)Cl [CCl4]
  liver state after feeding CCl4: fibrosis

Reference: patent US20120035444A1, “INTRAVITAL SAMPLE DEVICE FOR IN VIVO DRUG SCREENING” (NATIONAL TAIWAN UNIVERSITY, priority 2008, published 2012)
